Test results taken from US7390903B2, “Thieno-pyridine derivatives as allosteric enhancers of the GABAB receptors” (Hoffmann-La Roche Inc., priority 2004, dated 2008).

Key:
[1] = panic disorder patients; Hamilton, Zung anxiety scales, Katz-R nervousness subscale; cited from earlier work
[2] = small group of veterans with chronic, combat-related PTSD; cited from earlier work
[3] = PO, cited from earlier work
[4] = rat; cited from earlier work
[5] = biological target: GABABR1R2 (Homo sapiens, UniProt O75899+Q9UBS5); conditions: cited from earlier work; for effect on their own at GABAB receptors: absence of GABA; for effect on potency and maximal efficacy of GABA: in concert with endogenous GABA, GABABR1R2
GABABR1R2, sequence (Q9UBS5 20-961): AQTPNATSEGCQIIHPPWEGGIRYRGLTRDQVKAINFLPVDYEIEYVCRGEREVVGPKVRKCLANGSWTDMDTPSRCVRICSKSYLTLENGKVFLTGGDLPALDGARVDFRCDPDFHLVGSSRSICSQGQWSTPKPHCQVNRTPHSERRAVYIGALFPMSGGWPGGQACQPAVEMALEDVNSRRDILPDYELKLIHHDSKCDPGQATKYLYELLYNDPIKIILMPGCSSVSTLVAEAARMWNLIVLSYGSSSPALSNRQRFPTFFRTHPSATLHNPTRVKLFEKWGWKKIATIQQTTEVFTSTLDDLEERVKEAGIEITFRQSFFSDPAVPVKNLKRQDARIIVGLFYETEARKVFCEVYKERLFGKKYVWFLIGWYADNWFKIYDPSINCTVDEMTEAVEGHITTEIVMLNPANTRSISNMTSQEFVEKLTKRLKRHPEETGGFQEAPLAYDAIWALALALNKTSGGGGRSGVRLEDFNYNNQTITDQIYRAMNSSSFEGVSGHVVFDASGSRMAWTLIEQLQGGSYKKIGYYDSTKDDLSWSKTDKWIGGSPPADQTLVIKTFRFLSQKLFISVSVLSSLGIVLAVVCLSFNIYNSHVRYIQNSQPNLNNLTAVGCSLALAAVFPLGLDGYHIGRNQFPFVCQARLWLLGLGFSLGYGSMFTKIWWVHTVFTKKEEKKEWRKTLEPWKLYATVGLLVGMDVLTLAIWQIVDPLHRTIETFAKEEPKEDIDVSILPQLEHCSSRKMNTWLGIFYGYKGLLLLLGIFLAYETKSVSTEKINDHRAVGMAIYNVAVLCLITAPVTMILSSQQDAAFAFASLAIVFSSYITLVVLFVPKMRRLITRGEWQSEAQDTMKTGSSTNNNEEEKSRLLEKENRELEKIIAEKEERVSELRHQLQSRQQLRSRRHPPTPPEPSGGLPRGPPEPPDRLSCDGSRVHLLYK
GABABR1R2, sequence (O75899 42-941): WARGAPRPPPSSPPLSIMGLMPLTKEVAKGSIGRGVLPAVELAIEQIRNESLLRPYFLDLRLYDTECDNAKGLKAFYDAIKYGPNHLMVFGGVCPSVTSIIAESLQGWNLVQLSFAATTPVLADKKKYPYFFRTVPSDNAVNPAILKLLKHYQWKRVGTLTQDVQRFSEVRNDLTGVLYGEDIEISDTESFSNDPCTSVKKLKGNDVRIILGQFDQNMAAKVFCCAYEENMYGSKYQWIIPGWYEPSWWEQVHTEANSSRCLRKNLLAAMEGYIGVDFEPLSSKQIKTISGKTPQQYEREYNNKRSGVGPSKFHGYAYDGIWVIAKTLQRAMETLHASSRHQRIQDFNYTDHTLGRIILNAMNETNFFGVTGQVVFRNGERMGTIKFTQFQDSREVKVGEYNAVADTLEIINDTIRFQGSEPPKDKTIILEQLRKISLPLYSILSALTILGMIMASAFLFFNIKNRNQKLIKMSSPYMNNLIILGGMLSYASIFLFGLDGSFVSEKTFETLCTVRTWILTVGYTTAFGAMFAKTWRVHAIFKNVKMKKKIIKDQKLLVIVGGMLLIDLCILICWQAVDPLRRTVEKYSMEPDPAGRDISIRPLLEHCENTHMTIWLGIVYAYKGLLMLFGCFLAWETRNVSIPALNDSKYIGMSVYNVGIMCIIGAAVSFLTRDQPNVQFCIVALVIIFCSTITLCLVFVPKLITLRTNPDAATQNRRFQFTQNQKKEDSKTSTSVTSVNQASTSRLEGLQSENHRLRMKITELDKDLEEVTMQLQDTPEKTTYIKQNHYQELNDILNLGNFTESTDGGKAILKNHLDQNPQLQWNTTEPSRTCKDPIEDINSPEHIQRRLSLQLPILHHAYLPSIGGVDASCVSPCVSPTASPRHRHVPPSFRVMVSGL

[6] = preclinical; cited from earlier work
[7] = rats; cited from earlier work
[8] = biological target: T1, human GABABR1aR2a (Homo sapiens, UniProt O75899+Q9UBS5); test: Intracellular Ca2+ mobilization assay in CHO-GABABR1aR2a-Gα16 cell (FLIPR); format: cell-based; conditions: for GABA shift Log [EC50(GABA + 10 μM cp)/EC50(GABA alone)]: GABA 0.0003-30 μM in absence and presence of 10 μM enhancer; for Emax: enhancer 0.001-30 μM in the presence of 10 nM GABA (EC10), enhancer applied 15 min before GABA, read-out: Emax (%) at 10 nM GABA alone = 0% 10 μM GABA alone = 100%; for EC50: enhancer concentration-response (0.001-30 μM) in the presence of 10 nM GABA
T1 construct: expressed in transfected cells
T1 sequence (Q9UBS5 15-961 limits assumed): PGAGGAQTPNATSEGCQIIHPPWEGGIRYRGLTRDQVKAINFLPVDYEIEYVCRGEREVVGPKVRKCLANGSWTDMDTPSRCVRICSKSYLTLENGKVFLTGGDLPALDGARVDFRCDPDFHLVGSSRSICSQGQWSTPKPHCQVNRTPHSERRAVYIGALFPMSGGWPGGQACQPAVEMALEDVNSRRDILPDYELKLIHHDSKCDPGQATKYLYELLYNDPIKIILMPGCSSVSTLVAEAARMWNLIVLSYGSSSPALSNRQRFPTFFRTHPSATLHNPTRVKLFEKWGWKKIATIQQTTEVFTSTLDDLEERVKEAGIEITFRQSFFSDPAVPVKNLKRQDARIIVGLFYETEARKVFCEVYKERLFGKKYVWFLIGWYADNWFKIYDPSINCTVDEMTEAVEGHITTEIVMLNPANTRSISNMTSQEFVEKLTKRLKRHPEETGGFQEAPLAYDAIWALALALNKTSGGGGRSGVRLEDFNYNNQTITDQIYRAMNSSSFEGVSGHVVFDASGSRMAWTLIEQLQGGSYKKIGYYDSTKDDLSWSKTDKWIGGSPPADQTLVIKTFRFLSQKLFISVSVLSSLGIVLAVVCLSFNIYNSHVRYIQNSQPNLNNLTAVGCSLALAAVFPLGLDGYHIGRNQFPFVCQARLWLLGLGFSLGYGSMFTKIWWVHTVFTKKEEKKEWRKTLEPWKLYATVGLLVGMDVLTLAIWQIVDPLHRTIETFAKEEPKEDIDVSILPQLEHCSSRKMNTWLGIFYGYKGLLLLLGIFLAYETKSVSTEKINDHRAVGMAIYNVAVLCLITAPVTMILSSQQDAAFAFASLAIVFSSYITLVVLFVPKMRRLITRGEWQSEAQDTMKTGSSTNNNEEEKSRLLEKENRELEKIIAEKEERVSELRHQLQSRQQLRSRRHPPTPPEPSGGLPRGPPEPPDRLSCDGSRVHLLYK
T1 sequence (O75899 42-941): as the sequence (O75899 42-941) above
Experimental: Intracellular Ca^2+ Mobilization Assay
The Chinese Hamster Ovary (CHO) cells stably expressing human GABABR1aR2a and Gα16 were seeded at 5×10^4 cells/well in the poly-D-lysine treated, 96-well, black/clear-bottomed plates (BD Biosciences, Palo Alto, Calif.). 24 h later, the cells were loaded for 90 min at 37° C. with 4 μM Flou-4 acetoxymethyl ester (Catalog No. F-14202, Molecular Probes, Eugene, Oreg.) in loading buffer (1×HBSS, 20 mM HEPES, 2.5 mM Probenecid). Hanks' Balanced Salt Solution (HBSS) (10×) (catalog No. 14065-049) and HEPES (1M) (catalog No. 15630-056) were purchased from Invitrogen, Carlsbad, Calif. Probenecid (250 mM) (catalog No. P8761) was from Sigma, Buchs, Switzerland. The cells were washed five times with loading buffer to remove excess dye and intracellular calcium mobilization, [Ca^2+]i were measured using a Fluorometric Imaging Plate Reader (FLIPR, Molecular Devices, Menlo Park, Calif.) as described previously (Porter et al., Br. J. Pharmacol., 128, 13-20, 1999). The enhancers were applied 15 min before the application of the GABA. For GABA shift assay, concentration-response curves of GABA (0.0003-30 μM) were determined in the absence and presence of 10 μM enhancer. The GABA-shift is defined as Log [EC50 (GABA+10 μM enhancer)/EC50 (GABA alone)]. The % maximum enhancing effect (% Emax) and potency (EC50 value) of each enhancer was determined from concentration-response curve of the enhancer (0.001-30 μM) in the presence of 10 nM GABA (EC10). Responses were measured as peak increase in fluorescence minus basal, normalized to the maximal stimulatory effect induced by 10 μM GABA alone (considered 100%) and 10 nM GABA alone (considered 0%). The data were fitted with the equation Y=100+(Max−100)/(1+(EC50/[drug])^n) where Max is the maximum effect, EC50 the concentration eliciting a half-maximum effect and n the Hill slope.

[9] = cited from earlier work
[10] = passive avoidance behavioral test in mice and rats; cited from earlier work

Row | SMILES | GABA shift Log [EC50(GABA + 10 μM cp)/EC50(GABA alone)] [8] | Emax [8] [%] | EC50 [8] [µM] | other results
1 | NCC(CC(=O)O)c1ccc(Cl)cc1 (stereo not drawn) [Baclofen, β-chlorophenyl GABA] | – | – | – | number of panic attacks and symptoms of anxiety [1]: significantly effective in reducing the number of panic attacks and symptoms of anxiety; treatment of PTSD [2]: effective and well-tolerated treatment; side effects (spontaneous locomotor activity, rotarod, body temperature, traction test) ([3]; 2.5-15 mg/kg): showed these side effects; reversal of reduction in prepulse inhibition (PPI) induced by dizocilpine [4]: able to reverse the reduction in prepulse inhibition
2 | CC(C)(CO)Cc1cc(C(C)(C)C)c(O)c(C(C)(C)C)c1 [CGP7930, 2,6-di-tert-butyl-4-(3-hydroxy-2,2-dimethyl-propyl)-phenol] | – | – | – | effect on their own at GABAB receptors [5]: no effect on their own; effect on potency and maximal efficacy of GABA [5]: increase both the potency and maximal efficacy of GABA; efficacy for treatment of GERD [6]: found to be effective; cocaine self-administration [7]: effective at deceasing cocaine self-administration
3 | CC(C)(C=O)Cc1cc(C(C)(C)C)c(O)c(C(C)(C)C)c1 [CGP13501] | – | – | – | effect on their own at GABAB receptors [5]: no effect on their own; effect on potency and maximal efficacy of GABA [5]: increase both the potency and maximal efficacy of GABA
4 | Cc1nc2sc3c(c2c(-c2ccc(Cl)c(Cl)c2)c1C(=O)C(F)(F)F)CCC3 [Example 1, 1-[4-(3,4-Dichloro-phenyl)-2-methyl-6,7-dihydro-5H-cyclopenta[4,5]thieno[2,3-b]pyridin-3-yl]-2,2,2-trifluoro-ethanone] | −0.3 | 47 | 14.7 | –
5 | Cc1nc2sc3c(c2c(-c2cccs2)c1C(=O)C(F)(F)F)CCC3 [Example 2, 2,2,2-Trifluoro-1-(2-methyl-4-thiophen-2-yl-6,7-dihydro-5H-cyclopenta[4,5]thieno[2,3-b]pyridin-3-yl)-ethanone] | −0.9 | 59 | 1.3 | –
6 | Cc1nc2sc(C)c(C)c2c(-c2ccccc2)c1C(=O)C(F)(F)F [Example 16, 2,2,2-Trifluoro-1-(2,3,6-trimethyl-4-phenyl-thieno[2,3-b]pyridin-5-yl)-ethanone] | −0.9 | 69 | 2.4 | –
7 | CC(=O)c1c(C)nc2sc3c(c2c1-c1ccco1)CCC3 [Example 18, 1-(4-Furan-2-yl-2-methyl-6,7-dihydro-5H-cyclopenta[4,5]thieno[2,3-b]pyridin-3-yl)-ethanone] | −1 | 58 | 0.86 | –
8 | Cc1nc2sc(Cl)cc2c(-c2ccccc2)c1C(=O)C(F)(F)F [Example 21, 1-(2-Chloro-6-methyl-4-phenyl-thieno[2,3-b]pyridin-5-yl)-2,2,2-trifluoro-ethanone] | −1.1 | 66 | 1.9 | –
9 | CC(=O)c1c(C)nc2sc3cnccc3c2c1-c1ccccc1 [Example 23, 1-(2-Methyl-4-phenyl-9-thia-1,7-diaza-fluoren-3-yl)-ethanone] | −0.6 | 35 | 1.3 | –
10 | COC(=O)c1ccc(-c2c(C(=O)C3CC3)c(C)nc3sc4c(c23)CCCCC4)cc1 [Example 35, 4-(3-Cyclopropanecarbonyl-2-methyl-6,7,8,9-tetrahydro-H-10-thia-1-aza-benzo [a]azulen-4-yl)-benzoic acid methyl ester] | −0.91 | 56 | 1.2 | –
11 | COC(=O)N1CCc2c(sc3nc(C)c(C(C)=O)c(-c4ccccc4)c23)C1 [Example 38, 3-Acetyl-2-methyl-4-phenyl-5,8-dihydro-6H-9-thia-1,7-diaza-fluorene-7-carboxylic acid methyl ester] | −0.3 | 20 | 1.4 | –
12 | CSc1nc(NC2CCCC2)c([N+](=O)[O-])c(NC2CCCC2)n1 [GS39783, N,N_-dicyclopentyl-2-methylsulfanyl-5-nitro-pyrimidine-4,6-diamine] | – | – | – | tolerance after chronic treatment ([9]; 21 days, 10 mg/kg, P.O., once daily, light-dark box and elevated zero maze): No tolerance; anxiolytic-like effects ([9]; elevated plus maze (rat), elevated zero maze (mice and rats), stress-induced hyperthermia (mice)): exhibited anxiolytic-like effects; effect on spontaneous locomotor activity, rotarod, body temperature and traction test ([3]; 0.1-200 mg/kg): had no effect; effect on cognition performance [10]: did not have any effect; cocaine self-administration [7]: effective at deceasing cocaine self-administration
